Among the data in the OligoGym collection are normalised inhibition (eCFP-eYFP dual reporter) values, retold here.

Oligonucleotides are given in HELM: sugar(base)linkage, 5' to 3'; d 2'-deoxyribose, r ribose, m 2'-O-methylribose, p phosphate. ss, as = sense and antisense strand
Further: test concentration or dose not given here.

The series has as its target UBE2N. In words: reporter assay of Huesken 2005. Particulars: siRNA.
Take “RNA1{r(U)p.r(G)p.r(A)p.r(U)p.r(C)p.r(C)p.r(A)p.r(U)p.r(U)p.r(A)p.r(G)p.r(C)p.r(A)p.r(A)p.r(A)p.r(U)p.r(G)p.r(A)p.r(U)p.d(T)p.d(T)}|RNA2{r(A)p.r(U)p.r(C)p.r(A)p.r(U)p.r(U)p.r(U)p.r(G)p.r(C)p.r(U)p.r(A)p.r(A)p.r(U)p.r(G)p.r(G)p.r(A)p.r(U)p.r(C)p.r(A)p.d(T)p.d(C)}$$$RNA1{StrandType:ss}|RNA2{StrandType:as}$”: the normalised inhibition (eCFP-eYFP dual reporter) amounted to 70.2%.
As for “RNA1{r(U)p.r(G)p.r(G)p.r(C)p.r(A)p.r(U)p.r(C)p.r(A)p.r(A)p.r(A)p.r(G)p.r(C)p.r(C)p.r(G)p.r(A)p.r(A)p.r(C)p.r(C)p.r(A)p.d(T)p.d(T)}|RNA2{r(U)p.r(G)p.r(G)p.r(U)p.r(U)p.r(C)p.r(G)p.r(G)p.r(C)p.r(U)p.r(U)p.r(U)p.r(G)p.r(A)p.r(U)p.r(G)p.r(C)p.r(C)p.r(A)p.d(G)p.d(G)}$$$RNA1{StrandType:ss}|RNA2{StrandType:as}$”, the figure is 81.6%; as for “RNA1{r(U)p.r(U)p.r(C)p.r(A)p.r(U)p.r(G)p.r(U)p.r(G)p.r(G)p.r(U)p.r(C)p.r(A)p.r(U)p.r(U)p.r(G)p.r(C)p.r(U)p.r(G)p.r(G)p.d(T)p.d(T)}|RNA2{r(C)p.r(C)p.r(A)p.r(G)p.r(C)p.r(A)p.r(A)p.r(U)p.r(G)p.r(A)p.r(C)p.r(C)p.r(A)p.r(C)p.r(A)p.r(U)p.r(G)p.r(A)p.r(A)p.d(A)p.d(A)}$$$RNA1{StrandType:ss}|RNA2{StrandType:as}$”, 39.5%; as for “RNA1{r(U)p.r(U)p.r(G)p.r(C)p.r(U)p.r(G)p.r(G)p.r(C)p.r(C)p.r(C)p.r(U)p.r(C)p.r(A)p.r(G)p.r(G)p.r(A)p.r(U)p.r(U)p.r(C)p.d(T)p.d(T)}|RNA2{r(G)p.r(A)p.r(A)p.r(U)p.r(C)p.r(C)p.r(U)p.r(G)p.r(A)p.r(G)p.r(G)p.r(G)p.r(C)p.r(C)p.r(A)p.r(G)p.r(C)p.r(A)p.r(A)p.d(T)p.d(G)}$$$RNA1{StrandType:ss}|RNA2{StrandType:as}$”, 50.2%.
“RNA1{r(U)p.r(U)p.r(G)p.r(G)p.r(G)p.r(A)p.r(A)p.r(G)p.r(A)p.r(A)p.r(U)p.r(A)p.r(U)p.r(G)p.r(U)p.r(C)p.r(U)p.r(A)p.r(G)p.d(T)p.d(T)}|RNA2{r(C)p.r(U)p.r(A)p.r(G)p.r(A)p.r(C)p.r(A)p.r(U)p.r(A)p.r(U)p.r(U)p.r(C)p.r(U)p.r(U)p.r(C)p.r(C)p.r(C)p.r(A)p.r(A)p.d(C)p.d(T)}$$$RNA1{StrandType:ss}|RNA2{StrandType:as}$” yielded a normalised inhibition (eCFP-eYFP dual reporter) of 52.8%.
In turn, “RNA1{r(U)p.r(U)p.r(U)p.r(A)p.r(A)p.r(A)p.r(C)p.r(U)p.r(U)p.r(G)p.r(A)p.r(A)p.r(C)p.r(U)p.r(A)p.r(U)p.r(U)p.r(C)p.r(C)p.d(T)p.d(T)}|RNA2{r(G)p.r(G)p.r(A)p.r(A)p.r(U)p.r(A)p.r(G)p.r(U)p.r(U)p.r(C)p.r(A)p.r(A)p.r(G)p.r(U)p.r(U)p.r(U)p.r(A)p.r(A)p.r(A)p.d(A)p.d(G)}$$$RNA1{StrandType:ss}|RNA2{StrandType:as}$” had a normalised inhibition (eCFP-eYFP dual reporter) of 29.9%.
As for “RNA1{r(U)p.r(U)p.r(U)p.r(C)p.r(A)p.r(U)p.r(G)p.r(U)p.r(G)p.r(G)p.r(U)p.r(C)p.r(A)p.r(U)p.r(U)p.r(G)p.r(C)p.r(U)p.r(G)p.d(T)p.d(T)}|RNA2{r(C)p.r(A)p.r(G)p.r(C)p.r(A)p.r(A)p.r(U)p.r(G)p.r(A)p.r(C)p.r(C)p.r(A)p.r(C)p.r(A)p.r(U)p.r(G)p.r(A)p.r(A)p.r(A)p.d(A)p.d(T)}$$$RNA1{StrandType:ss}|RNA2{StrandType:as}$”, the figure is 39.8%; as for “RNA1{r(U)p.r(U)p.r(U)p.r(U)p.r(G)p.r(A)p.r(A)p.r(A)p.r(G)p.r(A)p.r(U)p.r(A)p.r(A)p.r(G)p.r(U)p.r(G)p.r(G)p.r(U)p.r(C)p.d(T)p.d(T)}|RNA2{r(G)p.r(A)p.r(C)p.r(C)p.r(A)p.r(C)p.r(U)p.r(U)p.r(A)p.r(U)p.r(C)p.r(U)p.r(U)p.r(U)p.r(C)p.r(A)p.r(A)p.r(A)p.r(A)p.d(T)p.d(A)}$$$RNA1{StrandType:ss}|RNA2{StrandType:as}$”, 35.5%.
